Activity calls are given as the source filed them. The calls are words filed in the database; no cut-off is given here.

The nature of data set [1]: (§1) Antiproliferative activity against human ViBo cells after 24 hrs by MTT assay. The data set is classed as functional, cell-based.
A short description of data set [2]: (§2) Antiproliferative activity against human CaSki cells after 24 hrs by MTT assay. It counts as functional, cell-based. The following applies: Ca-Ski.
Data set [3] deals with ViBo. Description: Induction of apoptosis in human ViBo cells assessed as chromatin condensation by DAPI staining-based fluorescence microscopic analysis. It counts as functional, cell-based.
The test system of data set [4] is Ca-Ski. Description: Induction of apoptosis in human CaSki cells assessed as chromatin condensation by DAPI staining-based fluorescence microscopic analysis. It counts as functional, cell-based.
Data set [5] concerns HeLa. Description: Induction of apoptosis in human HeLa cells assessed as chromatin condensation by DAPI staining-based fluorescence microscopic analysis. It counts as functional, cell-based.
The test system of data set [6] is ViBo. Description: Induction of apoptosis in human ViBo cells assessed as effect on cell morphology. The data set is classed as functional, cell-based.
Data set [7] concerns Ca-Ski. Description: Induction of apoptosis in human CaSki cells assessed as effect on cell morphology. It counts as functional, cell-based.
Data set [8] concerns HeLa. Description: Induction of apoptosis in human HeLa cells assessed as effect on cell morphology. The data set is classed as functional, cell-based.
The test system of a further data set is PBMC. Description: Immunosuppressive activity in PHA-stumulated CSFE labeled human enriched PBMC assessed as cell growth at IC50 after 72 hrs by flow cytometric analysis (reference value: 65.90%). The data set is classed as functional.
Data set [9] deals with ViBo. Description: Induction of apoptosis in human ViBo cells assessed as DNA fragmentation at 95 to 97 uM after 24 hrs by TUNEL assay. It counts as functional, cell-based.
Data set [10] has as its system Ca-Ski. Description: Induction of apoptosis in human CaSki cells assessed as DNA fragmentation at 95 to 97 uM after 24 hrs by TUNEL assay. It counts as functional, cell-based.
Data set [11] relates to HeLa. Description: Induction of apoptosis in human HeLa cells assessed as DNA fragmentation at 95 to 97 uM after 24 hrs by TUNEL assay. It counts as functional, cell-based.
In data set [12] the test system is ViBo. Description: Induction of apoptosis in human ViBo cells assessed as caspase-3 activation at 95 to 97 uM after 15 mins by DAPI staining-based epifluorescence microscopic analysis. It counts as functional, cell-based.
Data set [13] concerns Ca-Ski. Description: Induction of apoptosis in human CaSki cells assessed as caspase-3 activation at 95 to 97 uM after 15 mins by DAPI staining-based epifluorescence microscopic analysis. It counts as functional, cell-based.
Data set [14] deals with HeLa. Description: Induction of apoptosis in human HeLa cells assessed as caspase-3 activation at 95 to 97 uM after 15 mins by DAPI staining-based epifluorescence microscopic analysis. It counts as functional, cell-based.
Data set [15] in a line: Cell cycle arrest in human ViBo cells assessed as accumulation at sub-G1 phase at IC50 after 24 hrs by propidium iodide staining-based flow cytometric analysis relative to control. It counts as functional.
The nature of data set [16]: Cell cycle arrest in human ViBo cells assessed as accumulation at G2/M phase at IC50 after 24 hrs by propidium iodide staining-based flow cytometric analysis relative to control. The data set is classed as functional.
Data set [17] can be described thus: Cell cycle arrest in human ViBo cells assessed as accumulation at S phase at IC50 after 24 hrs by propidium iodide staining-based flow cytometric analysis relative to control. The data set is classed as functional.
Data set [18] is described as follows: Cell cycle arrest in human ViBo cells assessed as accumulation at G1 phase at IC50 after 24 hrs by propidium iodide staining-based flow cytometric analysis relative to control. It counts as functional.
The nature of data set [19]: Cell cycle arrest in human CaSki cells assessed as accumulation at sub-G1 phase at IC50 after 24 hrs by propidium iodide staining-based flow cytometric analysis relative to control. The data set is classed as functional. To be noted: Ca-Ski.
Data set [20] can be described thus: Cell cycle arrest in human CaSki cells assessed as accumulation at G2/M phase at IC50 after 24 hrs by propidium iodide staining-based flow cytometric analysis relative to control. The data set is classed as functional. To be noted: Ca-Ski.
Data set [21] in a line: Cell cycle arrest in human CaSki cells assessed as accumulation at S phase at IC50 after 24 hrs by propidium iodide staining-based flow cytometric analysis relative to control. It counts as functional. To be noted: Ca-Ski.
Data set [22] is described as follows: Cell cycle arrest in human CaSki cells assessed as accumulation at G1 phase at IC50 after 24 hrs by propidium iodide staining-based flow cytometric analysis relative to control. To be noted: Ca-Ski. The data set is classed as functional.
The test system of data set [23] is HeLa. Description: Cell cycle arrest in human HeLa cells assessed as accumulation at sub-G1 phase at IC50 after 24 hrs by propidium iodide staining-based flow cytometric analysis relative to control. The data set is classed as functional.
The test system of data set [24] is HeLa. Description: Cell cycle arrest in human HeLa cells assessed as accumulation at G2/M phase at IC50 after 24 hrs by propidium iodide staining-based flow cytometric analysis relative to control. It counts as functional.
Data set [25] concerns HeLa. Description: Cell cycle arrest in human HeLa cells assessed as accumulation at S phase at IC50 after 24 hrs by propidium iodide staining-based flow cytometric analysis relative to control. It counts as functional.
In data set [26] the test system is HeLa. Description: Cell cycle arrest in human HeLa cells assessed as accumulation at G1 phase at IC50 after 24 hrs by propidium iodide staining-based flow cytometric analysis (reference value: 62.51 +/- 3.76%). It counts as functional.
Data set [27] is described as follows: Cytotoxicity against PHA-activated human lymphocytes at IC50 after 72 hrs by LDH release assay. To be noted: lymphocyte. The data set is classed as cell-based.
Data set [28] can be described thus: Cytotoxicity against human ViBo cells at IC50 after 24 hrs by LDH release assay relative to control. It counts as functional.
A short description of data set [29]: Cytotoxicity against human CaSki cells at IC50 after 24 hrs by LDH release assay relative to control. It counts as functional, Ca-Ski.
In data set [30] the test system is HeLa. Description: Cytotoxicity against human HeLa cells at IC50 after 24 hrs by LDH release assay relative to control. It counts as functional.
Data set [31] relates to ViBo. Described as §1. It counts as functional, cell-based.
In data set [32] the test system is HeLa. Description: Antiproliferative activity against human HeLa cells after 24 hrs by MTT assay. It counts as functional, cell-based.
Data set [33] deals with Ca-Ski. The description is as §2. It counts as functional, cell-based.
Data set [34] has as its system ViBo. Description: Induction of apoptosis in human ViBo cells assessed as DNA fragmentation at 10 to 18 uM after 24 hrs by TUNEL assay. The data set is classed as functional, cell-based.
For data set [35], the system named is Ca-Ski. Description: Induction of apoptosis in human CaSki cells assessed as DNA fragmentation at 10 to 18 uM after 24 hrs by TUNEL assay. It counts as functional, cell-based.
Data set [36] relates to HeLa. Description: Induction of apoptosis in human HeLa cells assessed as DNA fragmentation at 10 to 18 uM after 24 hrs by TUNEL assay. The data set is classed as functional, cell-based.
Data set [37] concerns ViBo. Description: Induction of apoptosis in human ViBo cells assessed as caspase-3 activation at 10 to 18 uM after 15 mins by DAPI staining-based epifluorescence microscopic analysis. It counts as functional, cell-based.
The test system of data set [38] is Ca-Ski. Description: Induction of apoptosis in human CaSki cells assessed as caspase-3 activation at 10 to 18 uM after 15 mins by DAPI staining-based epifluorescence microscopic analysis. The data set is classed as functional, cell-based.
In data set [39] the test system is HeLa. Description: Induction of apoptosis in human HeLa cells assessed as caspase-3 activation at 10 to 18 uM after 15 mins by DAPI staining-based epifluorescence microscopic analysis. The data set is classed as functional, cell-based.

For `CC(=O)O[C@H]1C(=O)[C@@]2(C)[C@H]([C@H](OC(=O)c3ccccc3)[C@]3(O)C[C@H](OC(=O)[C@H](O)[C@@H](NC(=O)c4ccccc4)c4ccccc4)C(C)=C1C3(C)C)[C@]1(OC(C)=O)CO[C@@H]1C[C@@H]2O` [PACLITAXEL], the IC50 in [1] came out at 1.6 µM; in data set [2], 2.9 µM.

As to `CC(=O)O[C@H]1CC[C@@]2(C)[C@@H](CC[C@@H]3[C@@H]2CC(=O)[C@]2(C)[C@@H]([C@H](C)C(=O)CC[C@@H](C)C[Se]C#N)[C@@H](OC(C)=O)C[C@@H]32)C1`, the outcome with ViBo [3], in the data set with Ca-Ski [4], in the data set on HeLa [5], in the data set with ViBo [6], in the data set with Ca-Ski [7] and in the data set with HeLa [8] was Active. The result in the data set on ViBo [9], with Ca-Ski [10], in the data set with HeLa [11], with ViBo [12], with Ca-Ski [13] and in the data set with HeLa [14] was Active. Besides, the Activity in the data set with PBMC is 25.28%; in [15], 10.8%; in [16], 5.8%; in data set [17] it was 16.2%; in data set [18], 59.3%; in data set [19] it was 8.2%. Also, the Activity in data set [20] was determined as 13.2%; in [21], 19.4%; in [22], 49.2%; in the data set with HeLa [23] it was 4.74%; in the data set on HeLa [24] it was 10.9%; in the data set with HeLa [25] it was 18.54%. Also, the Activity with HeLa [26] was 64.04%; in data set [27], “Non-toxic”; in [28], 16%; in data set [29], 0%; in the data set with HeLa [30], 27%; in the data set with ViBo [31], “Dose-dependent effect”. In addition, the Activity result in the data set on HeLa [32] and in the data set with Ca-Ski [33] was “Dose-dependent effect” throughout. For the same molecule, the values for the IC50 (in data set [1]; in the data set on HeLa [32]; in [2]) were 97 µM, 95 µM and 97 µM, respectively.

With `CC(=O)O[C@H]1CC[C@@]2(C)C(=CC[C@H]3[C@@H]4C[C@H](OC(C)=O)[C@H]([C@H](C)C(=O)CC[C@@H](C)C[Se]C#N)[C@@]4(C)CC[C@@H]32)C1`, the outcome with ViBo [3], with Ca-Ski [4], with HeLa [5], in the data set on ViBo [6], in the data set on Ca-Ski [7] and with HeLa [8] was Active. Moreover, the outcome in the data set on ViBo [34], in the data set with Ca-Ski [35], with HeLa [36], in the data set on ViBo [37], with Ca-Ski [38] and in the data set on HeLa [39] was Active. Besides, the Activity came out at 51.96% with PBMC; 8.13% in data set [15]; 7.27% in data set [16]; 8.67% in data set [17]; 69.5% in data set [18]; 41.4% in data set [19]. Besides, the Activity in [20] was found to be 9.68%; in data set [21] it was 18.9%; in data set [22] it was 31.2%; in the data set on HeLa [23], 12.6%; in the data set on HeLa [24], 11.58%; with HeLa [25] it was 17.04%. Further, the Activity with HeLa [26] is 56.19%; in [27], “Non-toxic”; in data set [28], 45%; in [29], 33%; in the data set on HeLa [30], 72%; with ViBo [31] it was “Dose-dependent effect”. For the same molecule, the Activity entry with HeLa [32] and with Ca-Ski [33] was “Dose-dependent effect” in each case. Moreover, the IC50 amounted to 18 µM in data set [1], 10 µM with HeLa [32] and 15 µM in data set [2].

The values are drawn from ChEMBL document CHEMBL3351703, “Probing the selective antitumor activity of 22-oxo-26-selenocyanocholestane derivatives” (Eur J Med Chem, 2014).
